Results on 25 molecules are retold here after US20250144094A1 (Erasca, Inc., priority 2021, published 2025).

The target of the assay is Recombinant human ULK1 (1-649) (Homo sapiens (Human), UniProt O75385). Briefly: ULK1 ADP Glo kinase activity assay (MBP substrate). The conditions noted are these: 25° C., 40 minutes, read-out: ULK1 biochemical IC50. The method, then:
Recombinant human ULK1 (1-649) protein expressed in Sf9 insect cells was obtained from SignalChem (Vancouver, BC), catalog #U01-11G. Active kinase was purified via N-terminal GST tag to >85% purity.
ADP GLO Kinase Assay Reagents were obtained from Promega Corp (Madison, WI), catalog #V9104.
MBP (myelin basic protein) substrate, bovine, purified, was obtained from Sigma (St. Louis, MO), catalog #M1891.
ULK1 inhibitor potency was determined using the luminescent ADP Glo Kinase Assay (Promega), a universal ADP detection system that measures kinase activity by quantifying the amount of ADP produced during a kinase reaction. ULK1 kinase reactions are performed in a standard 96-well microplate (20 uL reaction volume) at 25° C. for 40 minutes in the presence or absence of the test compound (12-point dilution series starting at 10 uM). Addition of MBP substrate and ATP initiates the kinase reaction.
The standard ADP Glo assay is performed in two steps. In step one, following the kinase reaction, an equal volume of ADP-Glo™ Reagent (20 uL) is added to terminate the kinase reaction and deplete the remaining ATP. In the second step, the Kinase Detection Reagent (10 uL) is added to simultaneously convert ADP to ATP and allow the newly synthesized ATP to be measured using a luciferase/luciferin reaction. Step two of the ADP Glo assay is performed in a white 384-well plate (20 uL final volume). Thirty minutes after the addition of the Detection reagent, light generated from the luciferase reaction is measured (1 second exposure) using a microplate compatible luminometer (CLARIOstar, BMG Labtech).
Inhibition of ULK1 kinase activity is determined for each test compound by comparison to DMSO only control wells. Inhibitor IC50 was calculated by plotting the change in luminescence after 30 minutes (response) versus inhibitor concentration (in log molar) then applying the four-parameter variable slope curve fit (GraphPad Prism). Inhibition of ULK1 in biochemical assay is found in Table 3.
(ADP-Glo turns the ADP formed in a reaction into a luminescent signal.)

The structures appear in SMILES notation.

Recombinant human ULK1 (1-649), sequence (O75385 1-649): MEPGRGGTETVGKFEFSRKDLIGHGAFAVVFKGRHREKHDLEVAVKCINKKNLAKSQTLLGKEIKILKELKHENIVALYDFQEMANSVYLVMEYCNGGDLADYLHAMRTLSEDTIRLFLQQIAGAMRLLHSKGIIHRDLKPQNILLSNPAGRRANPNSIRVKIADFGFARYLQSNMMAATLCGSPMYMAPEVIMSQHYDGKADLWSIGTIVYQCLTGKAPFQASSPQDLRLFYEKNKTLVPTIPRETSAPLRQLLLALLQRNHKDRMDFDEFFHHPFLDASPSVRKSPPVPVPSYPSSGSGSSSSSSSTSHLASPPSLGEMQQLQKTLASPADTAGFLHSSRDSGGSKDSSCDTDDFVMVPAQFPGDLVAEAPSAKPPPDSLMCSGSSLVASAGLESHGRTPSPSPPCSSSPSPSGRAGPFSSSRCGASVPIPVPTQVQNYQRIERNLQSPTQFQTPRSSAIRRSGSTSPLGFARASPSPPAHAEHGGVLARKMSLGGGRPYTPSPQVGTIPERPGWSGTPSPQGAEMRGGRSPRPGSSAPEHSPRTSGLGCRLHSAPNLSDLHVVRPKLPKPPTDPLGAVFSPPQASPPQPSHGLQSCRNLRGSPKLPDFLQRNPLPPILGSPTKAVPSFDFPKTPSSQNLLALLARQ

Regarding `O=C1NCCNc2sc(-c3nc(Nc4cc5c(cc4Cl)CNCC5)ncc3C(F)(F)F)cc21` [Example 53, 7-(2-((7-chloro-1,2,3,4-tetrahydroisoquinolin-6-yl)amino)-5-(trifluoromethyl)pyrimidin-4-yl)-1,2,3,4-tetrahydro-5H-thieno[2,3-e][1,4]diazepin-5-one], the IC50 was ≤ 10 nM. The value for `CS(=O)(=O)c1cc(-c2nc(Nc3cc4c(cc3Cl)CNCC4)ncc2C(F)(F)F)sc1C(=O)N1CCOCC1` [Example 58, (5-(2-((7-chloro-1,2,3,4-tetrahydroisoquinolin-6-yl)amino)-5-(trifluoromethyl)pyrimidin-4-yl)-3-(methylsulfonyl)thiophen-2-yl)(morpholino)methanone] was 100 to 500 nM; that for `CS(=O)(=O)c1csc(-c2nc(Nc3cc4c(cc3F)CCNC4)ncc2C(F)(F)F)c1` [Example 110, 6-fluoro-N-[4-(4-methylsulfonyl-2-thienyl)-5-(trifluoromethyl)pyrimidin-2-yl]-1,2,3,4-tetrahydroisoquinolin-7-amine] was ≤ 10 nM; that for `O=C1NCCS(=O)(=O)c2cc(-c3nc(Nc4cc5c(cc4Cl)CNCC5)ncc3C(F)(F)F)sc21` [Example 82, 7-[2-[(7-chloro-1,2,3,4-tetrahydroisoquinolin-6-yl)amino]-5-(trifluoromethyl)pyrimidin-4-yl]-1,1-dioxo-3,4-dihydro-2H-thieno[2,3-f][1,4]thiazepin-5-one] was ≤ 10 nM. Regarding `CS(=O)(=O)c1cc(-c2nc(Nc3cc4c(cc3Cl)CNCC4)ncc2C(F)(F)F)sc1C1CCOCC1` [Example 97, 7-chloro-N-(4-(4-(methylsulfonyl)-5-(tetrahydro-2H-pyran-4-yl)thiophen-2-yl)-5-(trifluoromethyl)pyrimidin-2-yl)-1,2,3,4-tetrahydroisoquinolin-6-amine], the IC50 is ≤ 10 nM. The value for `CN1CCc2cc(Nc3ncc(C(F)(F)F)c(-c4cc5c(s4)CNCCS5(=O)=O)n3)c(Cl)cc2C1` [Example 69, 7-(2-((7-chloro-2-methyl-1,2,3,4-tetrahydroisoquinolin-6-yl)amino)-5-(trifluoromethyl)pyrimidin-4-yl)-2,3,4,5-tetrahydrothieno[2,3-f][1,4]thiazepine 1,1-dioxide] was ≤ 10 nM. The value for `CN1CCC(n2cc(Nc3ncc(C(F)(F)F)c(-c4cc5c(s4)CCNC5=O)n3)c(C3CC3)n2)CC1` [Example 48, 2-(2-((3-cyclopropyl-1-(1-methylpiperidin-4-yl)-1H-pyrazol-4-yl)amino)-5-(trifluoromethyl)pyrimidin-4-yl)-6,7-dihydrothieno[3,2-c]pyridin-4(5H)-one] was ≤ 10 nM; that for `Cn1ncc2sc(-c3nc(Nc4cc5c(cc4Cl)CNCC5)ncc3C(F)(F)F)cc2c1=O` [Example 31, 2-(2-((7-Chloro-1,2,3,4-tetrahydroisoquinolin-6-yl)amino)-5-(trifluoromethyl)pyrimidin-4-yl)-5-methylthieno[2,3-d]pyridazin-4(5H)-one] was ≤ 10 nM; that for `O=S1(=O)CCNCc2sc(-c3nc(Nc4cc5c(cc4Cl)CNCC5)ncc3C(F)(F)F)cc21` [Example 64, 7-(2-((7-chloro-1,2,3,4-tetrahydroisoquinolin-6-yl)amino)-5-(trifluoromethyl)pyrimidin-4-yl)-2,3,4,5-tetrahydrothieno[2,3-f][1,4]thiazepine 1,1-dioxide] was ≤ 10 nM. Take `Cc1nn(C2CN(C)C2)cc1Nc1ncc(C(F)(F)F)c(-c2cc(S(C)(=O)=O)cs2)n1` [Example 124, N-(3-methyl-1-(1-methylazetidin-3-yl)-1H-pyrazol-4-yl)-4-(4-(methylsulfonyl)thiophen-2-yl)-5-(trifluoromethyl)pyrimidin-2-amine]: the IC50 fell in the range of 100 to 500 nM. As for `CN1CCc2cc(Nc3ncc(C(F)(F)F)c(-c4cc(S(C)(=O)=O)c(C(N)=O)s4)n3)c(Cl)cc2C1` [Example 63, 5-(2-((7-Chloro-2-methyl-1,2,3,4-tetrahydroisoquinolin-6-yl)amino)-5-(trifluoromethyl)pyrimidin-4-yl)-3-(methylsulfonyl)thiophene-2-carboxamide], the IC50 was ≤ 10 nM. The value for `CN1CC(N2Cc3cc(Cl)c(Nc4ncc(C(F)(F)F)c(-c5cc(C(N)=O)cs5)n4)cc3C2)C1` [Example 12, 5-(2-((6-chloro-2-(1-methylazetidin-3-yl)isoindolin-5-yl)amino)-5-(trifluoromethyl)pyrimidin-4-yl)thiophene-3-carboxamide] was ≤ 10 nM; that for `CSc1cc2c(cc1Nc1ncc(C(F)(F)F)c(-c3cc(S(C)(=O)=O)cs3)n1)CCN(C)C2` [Example 68, 2-methyl-N-(4-(4-(methylsulfonyl)thiophen-2-yl)-5-(trifluoromethyl)pyrimidin-2-yl)-7-(methylthio)-1,2,3,4-tetrahydroisoquinolin-6-amine] was ≤ 10 nM. The value for `O=S1(=O)CCCOc2sc(-c3nc(Nc4cc5c(cc4Cl)CNCC5)ncc3C(F)(F)F)cc21` [Example 60, 2-(2-((7-chloro-1,2,3,4-tetrahydroisoquinolin-6-yl)amino)-5-(trifluoromethyl)pyrimidin-4-yl)-6,7-dihydro-5H-thieno[2,3-b][1,4]oxathiepine 4,4-dioxide] was ≤ 10 nM; that for `CN(C)C(=O)c1csc(-c2nc(Nc3cc4c(cc3Cl)CNCC4)ncc2C(F)(F)F)c1` [Example 2, 5-(2-((7-chloro-1,2,3,4-tetrahydroisoquinolin-6-yl)amino)-5-(trifluoromethyl)pyrimidin-4-yl)-N,N-dimethylthiophene-3-carboxamide] was 10 to 50 nM; that for `O=C1NCCc2sc(-c3nc(Nc4cc5c(cc4Cl)CNC5)ncc3C(F)(F)F)cc21` [Example 33, 2-(2-((6-Chloroisoindolin-5-yl)amino)-5-(trifluoromethyl)pyrimidin-4-yl)-6,7-dihydrothieno[3,2-c]pyridin-4(5H)-one] was ≤ 10 nM. The value for `CS(=O)(=O)c1csc(-c2nc(Nc3cc4c(cc3Cl)CN(CC(F)(F)F)CC4)ncc2C(F)(F)F)c1` [Example 108, 7-chloro-N-[4-(4-methylsulfonyl-2-thienyl)-5-(trifluoromethyl)pyrimidin-2-yl]-2-(2,2,2-trifluoroethyl)-3,4-dihydro-1H-isoquinolin-6-amine] was 100 to 500 nM; that for `O=C1NCCCc2sc(-c3nc(Nc4cc5c(cc4Cl)CNCC5)ncc3C(F)(F)F)cc21` [Example 28, 2-(2-((7-Chloro-1,2,3,4-tetrahydroisoquinolin-6-yl)amino)-5-(trifluoromethyl)pyrimidin-4-yl)-5,6,7,8-tetrahydro-4H-thieno[3,2-c]azepin-4-one] was ≤ 10 nM. As for `CCc1cc2c(cc1Nc1ncc(C(F)(F)F)c(-c3cc(C(N)=O)cs3)n1)CN(C)C2` [Example 20, 5-(2-((6-Ethyl-2-methylisoindolin-5-yl)amino)-5-(trifluoromethyl)pyrimidin-4-yl)thiophene-3-carboxamide], the IC50 was 10 to 50 nM. The value for `CN1Cc2cc(Nc3ncc(C(F)(F)F)c(-c4cc(S(C)(=O)=O)cs4)n3)c(C3CC3)cc2C1` [Example 88, 6-cyclopropyl-N-[4-(4-methanesulfonylthiophen-2-yl)-5-(trifluoromethyl)pyrimidin-2-yl]-2-methyl-2,3-dihydro-1H-isoindol-5-amine] was ≤ 10 nM.

With `CNC(=O)c1csc(-c2nc(Nc3cc4c(cc3Cl)CNCC4)ncc2C(F)(F)F)c1` [Example 6, 5-(2-((7-chloro-1,2,3,4-tetrahydroisoquinolin-6-yl)amino)-5-(trifluoromethyl)pyrimidin-4-yl)-N-methylthiophene-3-carboxamide], the IC50 fell in the range of 50 to 100 nM. As to `Cc1nn(C2CCN(C)CC2)cc1Nc1ncc(C(F)(F)F)c(-c2cc(S(C)(=O)=O)cs2)n1` [Example 119, N-[3-methyl-1-(1-methyl-4-piperidyl)pyrazol-4-yl]-4-(4-methylsulfonyl-2-thienyl)-5-(trifluoromethyl)pyrimidin-2-amine], the IC50 is ≤ 10 nM.

`CS(=O)(=O)c1cc(-c2nc(Nc3cc4c(cc3Cl)CNCC4)ncc2C(F)(F)F)sc1C(N)=O` [Example 59, 5-(2-((7-chloro-1,2,3,4-tetrahydroisoquinolin-6-yl)amino)-5-(trifluoromethyl)pyrimidin-4-yl)-3-(methylsulfonyl)thiophene-2-carboxamide]: the IC50 was ≤ 10 nM. For the molecule `NS(=O)(=O)c1csc(-c2nc(Nc3cc4c(cc3Cl)CNCC4)ncc2C(F)(F)F)c1` [Example 27, 5-(2-((7-Chloro-1,2,3,4-tetrahydroisoquinolin-6-yl)amino)-5-(trifluoromethyl)pyrimidin-4-yl)thiophene-3-sulfonamide], the IC50 was ≤ 10 nM.

For `O=C1NCCS(=O)(=O)c2cc(-c3nc(Nc4cc5c(cc4Cl)CN(C4CC4)CC5)ncc3C(F)(F)F)sc21` [Example 126, 7-(2-((7-chloro-2-cyclopropyl-1,2,3,4-tetrahydroisoquinolin-6-yl)amino)-5-(trifluoromethyl)pyrimidin-4-yl)-3,4-dihydrothieno[2,3-f][1,4]thiazepin-5(2H)-one 1,1-dioxide], the IC50 was 10 to 50 nM.

The term IC50 denotes the point on the concentration scale where inhibition reaches its midpoint.
